Experimental data reported in PMC5099944, “Design, synthesis and biological evaluation of hybrids of β-carboline and salicylic acid as potential anticancer and apoptosis inducing agents” (Scientific Reports, 2016).

Columns and labels:
SMMC-7721 cells = test: Flow cytometry assay of cell apoptosis (FITC-Annexin V/PI); assay type: cell-based, human; settings: 48 h
Experimental: To determine whether apoptosis is involved in the anti-proliferative effects of 8h, apoptosis assay was performed using SMMC-7721 cells. The cells were incubated with either vehicle alone, different concentrations of 8h (7.0 or 14 μM), or 14 μM 5-FU for 48 h, and then stained with FITC-Annexin V and propidium iodide (PI). The percentages of apoptotic SMMC-7721 cells were determined by flow cytometry analysis. In the vehicle group, the occurrence of SMMC-7721 cell apoptosis was minimal. […] Low concentration of 8h (7.0 μM) induced 46% SMMC-7721 cell apoptosis, while the higher dose (14 μM) of 8h induced 63% SMMC-7721 cell apoptosis.
Figure 4 Compound 8h induced SMMC-7721 cell apoptosis in vitro. SMMC-7721 cells were incubated with the indicated concentrations of 8h and 14 μM 5-FU for 48 h, and the cells were stained with FITC-Annexin V and PI, followed by flow cytometry analysis. (A) Flow cytometry analysis. (B) Quantitative analysis of apoptotic cells. Data are expressed as means ± SD of the percentages of apoptotic cells from three independent experiments. *P < 0.01 vs control.
SMMC-7721 cells were cultured overnight and incubated in triplicate with compound 8h (7.0 and 14 μM), 5-FU (14 μM), or vehicle for 48 h. The cells were harvested, and stained with FITC-Annexin V and PI (BioVision) at room temperature for 15 min. The percentage of apoptotic cells was determined by flow cytometry (Beckman Coulter) analysis.

EJ cells = test: MTT assay, proliferation of EJ cells; assay type: cell-based; settings: 48 h, EJ human bladder carcinoma cells, read-out: In vitro cytotoxicity (IC50) EJ
Experimental: The in vitro antitumor activities of the synthesized compounds 7a-l and 8a-l against five human cancer cells were evaluated in MTT assays using 5-fluorouracil (5-FU) and harmine as positive controls. These cells are human hepatocellular carcinoma cells (SMMC-7721 and Hep G2), human colon cancer cell lines (HCT116), human bladder carcinoma cells (EJ), and human lung cancer cells (H460).
Hepatocellular carcinoma cells (SMMC-7721 and Hep G2), Human colon cancer cell lines (HCT116), human bladder carcinoma cells (EJ) or human lung cancer cells (H460) at 10^4 cells per well were cultured in 10% FBS DMEM in 96-well flat-bottom microplates overnight. The cells were incubated in triplicate with, or without, different concentrations of each test compound for 48 h. During the last 4 h incubation, 30 μL of tetrazolium dye (MTT) solution (5 mg mL^−1) was added to each well. The resulting MTT-formazan crystals were dissolved in 150 μL DMSO, and absorbance was measured spectrophotometrically at 570 nm using an ELISA plate reader. The inhibition induced by each test compound at the indicated concentrations was expressed as a percentage. The concentration required for 50% inhibition (IC50) was calculated using the software (GraphPadPrism Version 4.03).

Question: For `Cc1nc(C(=O)NCCCCCNC(=O)c2ccccc2O)cc2c1[nH]c1ccccc12` [8h, N-(5-(2-Hydroxybenzamido)pentyl)-1-methyl-9H-pyrido[3,4-b]indole-3-carboxamide], which “SMMC-7721 cell apoptosis (percentage of apoptotic cells)” value (SMMC-7721 cells; 7.0 μM) is on record?
Answer: 46%

Question: And the “SMMC-7721 cell apoptosis (percentage of apoptotic cells)” value (SMMC-7721 cells; 14 μM)?
Answer: 63%

Question: What about the IC50 (EJ cells) of the same molecule?
Answer: 7.89 µM
